Molecules are shown by their SMILES.

The text below walks through data of PMC4500499, “Azanitrile Cathepsin K Inhibitors: Effects on Cell Toxicity, Osteoblast-Induced Mineralization and Osteoclast-Mediated Bone Resorption” (PLoS ONE, 2015).

This assay has as its target T1, cathepsin K (Homo sapiens, UniProt P43235).
T1 construct: gene CTSK; recombinant human CatK
T1 sequence (P43235 115-329): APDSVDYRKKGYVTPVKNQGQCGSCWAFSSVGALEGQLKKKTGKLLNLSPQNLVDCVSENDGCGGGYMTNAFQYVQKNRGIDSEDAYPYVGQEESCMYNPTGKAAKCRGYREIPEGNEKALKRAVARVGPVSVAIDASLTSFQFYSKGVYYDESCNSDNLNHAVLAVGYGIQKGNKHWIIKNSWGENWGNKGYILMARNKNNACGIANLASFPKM
Nature of the assay: gelatin zymography with recombinant human CatK. The assay is classed as biochemical.

In general, IC50 refers to the midpoint of a concentration-inhibition curve. Take `CC(C)C[C@H](NC(=O)c1ccc(-c2ccc(-c3ccccc3)cc2)cc1)C(=O)N(C)N(C)C#N` [CKI-8]: the IC50 is 51 ± 20 nM.
The value for `CC(C)C[C@H](NC(=O)c1cccc(-c2ccc(-c3ccccc3)cc2)c1)C(=O)N(C)N(C)C#N` [CKI-13] was 29 ± 11 nM.
